Assay results: publication PMC9300616, “Grape seed proanthocyanidin extract inhibits DNA and protein damage and labile iron, enzyme, and cancer cell activities” (Scientific Reports, 2022)

Assays:
[1] = system: ferritin; assay: Labile iron inhibition assay (superoxide-dependent iron release from ferritin); assay type: biochemical; conditions: for Labile Iron IC50: inhibition of iron release from ferritin, mean ± SD of three experiments
Protocol: The mixture was illuminated using a fluorescent lamp for 90 min at 25 °C. The labile iron content was measured as described by Ibrahim et al.[22].

[2] = system: pBR322 plasmid DNA; assay: DNA damage by free radicals (H2O2 + UV), agarose gel; assay type: biochemical; conditions: for supercoiled (SC) form of pBR322 DNA: H2O2 + UV; for DNA damage inhibition IC50: pBR322 DNA + H2O2 + UV, mean ± SD of three experiments
Protocol: The assay was performed using the method described by Habib et al.[17]. Briefly, 6 μL of 30% H2O2 was added to an Eppendorf tube with a volume of 20 μL containing 6 μL of PBS buffer, 0.2 μg of pBR322 DNA in 2 μL of 50 mM PBS (pH 7.4), and 4 μL of samples. The reactions were initiated by UV irradiation and sustained for 5 min on the surface of a UV transilluminator TFM-26 (UVP, Upland, CA, USA), with an intensity of […] at 312 nm at room temperature. At the end of the reaction, the samples were run on 0.8% agarose. […] Vitamin C and Rutin were used as positive controls.

[3] = ABTS free radical-scavenging assay; assay type: biochemical; conditions: for ABTS IC50: concentration that scavenges free radicals by 50%, mean ± SD of three experiments
Protocol: Determination was conducted based on the method reported by Platat et al.[62]. The results were expressed as the percentage of ABTS^· radical inhibition calculated using Eq. (1) as described above.

[4] = system: Bovine Serum Albumin (BSA); assay: Protein oxidation induced by AAPH, SDS-PAGE; conditions: for Fragmentation of BSA reduced by: AAPH 30 min
Protocol: Alkylperoxyl radical-induced oxidation of Bovine Serum Albumin (BSA) was performed as described by Habib et al.[17]. In brief, BSA (0.5 mg mL^−1) was incubated with AAPH (20 mM) in the presence or absence of different extracts in a shaking water bath at 37 °C for 30 min. A protein sample without AAPH was used as control. After treatment, protein samples were mixed with loading buffer and heated at 100 °C for 5 min. An aliquot of each sample was loaded and separated using 10% SDS-PAGE under reducing conditions. The free stained gels were imaged using a ChemiDoc MV gel documentation system (Bio-Rad, Hercules, CA, USA). To determine the amount of protein damage, band intensity was determined using the Image Lab 4.1 software (version 6.1.0 build 7) (Bio-Rad, Hercules, CA, USA). The optical density of each band was determined and standardized for the control group.

[5] = molecular target: mushroom tyrosinase; assay: Tyrosinase inhibition assay; assay type: biochemical; conditions: mean ± SD of three experiments
Protocol: Tyrosinase inhibitory activity was measured as described by Habib et al.[17]. […] After 10 min of incubation at 37 °C, 1 mL of mushroom tyrosinase (50 units/mL, dissolved in 0.2 M phosphate buffer, pH 6.8), was added to the mixture. The absorbance was recorded after 10 min at 475 nm. A 50% ethanol solution was used as a blank, and 1 mL of deionized water was used as the control. % Tyrosinase inhibitory activity was calculated according to Eq. (1) as described above.

[6] = molecular target: T1, Porcine α-amylase (Sus scrofa, UniProt P00690); assay: Porcine α-amylase inhibition assay; assay type: biochemical; conditions: mean ± SD of three experiments
T1 sequence (P00690 16-511): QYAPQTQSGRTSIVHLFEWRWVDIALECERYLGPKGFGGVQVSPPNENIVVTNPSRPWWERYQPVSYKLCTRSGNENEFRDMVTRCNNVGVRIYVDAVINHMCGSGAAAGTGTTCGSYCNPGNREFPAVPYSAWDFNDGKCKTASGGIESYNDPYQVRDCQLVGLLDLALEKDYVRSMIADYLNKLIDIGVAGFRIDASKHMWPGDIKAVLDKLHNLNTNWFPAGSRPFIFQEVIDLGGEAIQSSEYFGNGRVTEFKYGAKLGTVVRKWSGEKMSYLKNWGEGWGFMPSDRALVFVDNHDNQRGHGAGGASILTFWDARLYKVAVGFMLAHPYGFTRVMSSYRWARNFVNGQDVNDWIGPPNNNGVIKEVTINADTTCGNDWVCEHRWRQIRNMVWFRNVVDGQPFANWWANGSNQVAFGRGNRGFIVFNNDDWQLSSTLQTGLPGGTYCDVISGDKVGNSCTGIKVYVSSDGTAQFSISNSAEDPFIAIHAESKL
Protocol: Inhibition of porcine α-amylase activity was described by Habib et al.[17]. […] For 10 min, the mixture was incubated at 25 °C, and then 50 µL 1% starch solution in 20 mM sodium phosphate buffer at pH 6.9 with 6 mM NaCl was added. The mixture was incubated at 25 °C, followed by addition of a color reagent (1 mL dinitrosalicylic acid). To stop the reaction, the mixture was kept for 10 min in a water bath at 100 °C and then cooled to 25 °C. 1 mL of deionized water was added, and the absorbance was read at 540 nm using a 96-well microplate reader. Inhibition of porcine α-amylase was estimated using Eq. (1) as described above.

[7] = DPPH free radical-scavenging assay; assay type: biochemical; conditions: concentration that scavenges free radicals by 50%; mean ± SD of three experiments
Protocol: The estimation was based on the method reported by Habib et al.[61]. The results were expressed as the percentage inhibition of the DPPH^· radical. The percentage of inhibition of DPPH^· radical was calculated using the following equation:1 %ofDPPH^·inhibition=Abscontrol-Abssample/Abscontrol×100
where Abs control is the absorbance of DPPH^· solution without the tested sample.

Row | SMILES | percentage inhibition of iron release from ferritin ([1]; at 10 μg) | percentage inhibition of iron release from ferritin ([1]; at 50 μg) | percentage inhibition of iron release from ferritin ([1]; at 100 μg) | Labile Iron IC50 [1] | supercoiled (SC) form of pBR322 DNA ([2]; at 0.1 mg/mL) | supercoiled (SC) form of pBR322 DNA ([2]; at 5 mg/mL) | DNA damage inhibition IC50 [2] | ABTS scavenging ([3]; at 0.1 mg/mL) | ABTS scavenging ([3]; at 5 mg/mL) | ABTS IC50 [3] | Fragmentation of BSA reduced by ([4]; at 0.1 mg/mL) | Fragmentation of BSA reduced by ([4]; at 5 mg/mL) | BSA damage inhibition IC50 ([4]; BSA + AAPH, mean ± SD of three experiments) | Tyrosinase IC50 [5] | IC50 [6] | Porcine α-amylase IC50 [6] | DPPH IC50 [7]
1 | O=C(O)c1cc(O)c(O)c(O)c1 [Gallic acid] | 50.68 ± 0.18% | 59.22 ± 0.81% | 68.55 ± 0.38% | 4.86 ± 0.23 µg/mL |  |  |  |  |  |  |  |  |  |  |  |  | 
2 | C[C@@H]1O[C@@H](OC[C@H]2O[C@@H](Oc3c(-c4ccc(O)c(O)c4)oc4cc(O)cc(O)c4c3=O)[C@H](O)[C@@H](O)[C@@H]2O)[C@H](O)[C@H](O)[C@H]1O [Rutin] | 85.32 ± 0.56% | 90.30 ± 0.01% | 96.65 ± 0.01% | 0.08 ± 0.14 µg/mL | 13.50 ± 0.52% | 66.50 ± 0.57% | 2.45 ± 0.13 µg/mL | 48.10 ± 0.07% | 90.13 ± 0.04% | 6.31 ± 1.00 µg/mL | 94.12 ± 0.20% | 99.10 ± 0.24% | 4.42 ± 0.24 µg/mL | 72.08 ± 0.54 µg/mL | 130 µM |  | 
3 | Cc1c(C)c2c(c(C)c1O)CCC(C)(C(=O)O)O2 (centres unmarked) [Trolox] | 39.33 ± 0.54% | 84.79 ± 3.00% | 87.87 ± 1.87% | 12.57 ± 0.64 µg/mL |  |  |  |  |  |  |  |  |  |  |  |  | 
4 | O=C1O[C@H]([C@@H](O)CO)C(O)=C1O [VC, vitamin C] |  |  |  |  | 11.50 ± 0.63% | 19.10 ± 0.91% | 42.03 ± 1.06 µg/mL | 88.29 ± 0.22% | 92.69 ± 0.32% | 0.68 ± 0.12 µg/mL |  |  |  | 42.74 ± 0.23 µg/mL |  | 87.24 ± 0.71 µg/mL | 880 ± 0.52 µg/mL
